tested on: not listed separately; test: Rat pharmacokinetics and brain penetration (IV and PO); format: in vivo; conditions: male, SD, brain and plasma; Rat, 3 mg/kg IV; 10 mg/kg PO; read-out: Kp (brain/plasma drug concentration ratio)
Procedure: (§1) Example 29: Pharmacokinetics and Brain Penetration Experiment to Determine Brain and Plasma Concentrations of Compounds After IV Administration to Male CD1 Mice or Male SD Rat
The study design consisted of 2 groups (24 animals and 18 animals) and administrating the drug [IV: 3 mg/kg (1.5 mL/kg) via foot dorsal vein], [PO: 10 mg/kg (5 mL/kg) via oral gavage] and collecting samples at terminal bleeding for plasma, brain and CSF at 0.25, 0.5, 1, 4, 8 and 24 hr. The IV and PO dosing solutions were prepared in 50 mM citrate buffer (pH 4.0) at 2 mg/mL. The blood collection was performed as follows: the animal was restrained manually at the designated time points, approximately 150 μL of blood sample was collected via cardiac puncture vein into EDTA-2K tubes. The blood samples were maintained in wet ice first and centrifuged to obtain plasma (2000 g, 4° C., 5 min) within 15 minutes post sampling. The brain collection was performed as follows: a mid-line incision was made in the animal's scalp and the skin was retracted. Using small bone cutters and rongeurs, the skull overlying the brain was removed. The brain was removed using a spatula and rinsed with cold saline. The brain was placed in screw-top tubes and then stored under −70° C. until analysis. The CSF collection was performed as follows: the animal was euthanized under deep anesthesia with air bubble tail vein injection. The CSF was collected by direct puncture of butterfly needle into the cisterna magna, using the occipital bone and the wings of the atlas as landmarks. A piece of white paper was used as a background to monitor color change in the sample just above the needle during collection. Upon observation of color change, the PE tubing was quickly clamped off above the color change and cut just above the clamped site. The clear sample was drawn into the syringe.
Plasma Samples Preparation:
An aliquot of 30 μL sample was added with 100 MeCN containing 100 ng/mL IS (Dexamethasone). The mixture was vortexed for 10 min and centrifuged at 5800 rpm for 10 min. An aliquot of 40 μL supernatant was added with 40 μl H2O and the mixture was vortexed for 5 min. An aliquot of 2 μL supernatant was injected for LC-MS/MS analysis.
Brain Samples Preparation:
The sample was homogenized with 3 volumes (v/w) of PBS. An aliquot of 30 μL sample was added with 100 μL ACN containing 100 ng/mL IS (Dexamethasone). The mixture was vortexed for 10 min and centrifuged at 5800 rpm for 10 min. An aliquot of 40 μL supernatant was added with 40 μl H2O and the mixture was vortexed for 5 min. An aliquot of 2 μL supernatant was injected for LC-MS/MS analysis.
An aliquot of 10 μL sample was added with 10 μLMeOH/H2O (1/1) and […], ACN containing 200 ng/mL IS (Dexamethasone) 120 μL H2O. The mixture was vortexed for 5 min. An aliquot of 2 μL supernatant was injected for LC-MS/MS analysis.
The sample analysis was performed on UPLC-MS/MS-02 (Triple Quad 4000) under the following conditions: positive ion, ESI, MRM detection using dexamethasone as internal standard. HPLC conditions: mobile phase A: H2O-0.1% FA, mobile phase B: MeCN-0.1% FA on ACQUITY UPLC HSS T3 (2.1×50 mm, 1.8 μm) column at 60° C.

Row | Structure (SMILES) | Kp
1 | CN1CCN(c2cccc3nc([C@H]4CCC[C@@H](c5ncccc5Cl)N4)cn23)CC1 (racemic) [Compound I-149] | 8.4
2 | CN1CCN(c2cccc3nc([C@H]4CCC[C@@H](c5ncccc5Cl)N4)cn23)CC1 (single isomer, unassigned) [Compound I-188] | 5.65

same assay, conditions: male, SD, brain and plasma; Rat, 3 mg/kg IV; 10 mg/kg PO; read-out: Kp, uu (unbound brain/unbound plasma drug concentration ratio)

Row | Structure (SMILES) | Kp uu
3 | CN1CCN(c2cccc3nc([C@H]4CCC[C@@H](c5ncccc5Cl)N4)cn23)CC1 (racemic) [Compound I-149] | 1.6
4 | CN1CCN(c2cccc3nc([C@H]4CCC[C@@H](c5ncccc5Cl)N4)cn23)CC1 (single isomer, unassigned) [Compound I-188] | 1.04

same assay, conditions: male, SD, plasma; Rat, 3 mg/kg IV; 10 mg/kg PO

Row | Structure (SMILES) | clearance [L/h/kg]
5 | CN1CCN(c2cccc3nc([C@H]4CCC[C@@H](c5ncccc5Cl)N4)cn23)CC1 (racemic) [Compound I-149] | 7.63
6 | CN1CCN(c2cccc3nc([C@H]4CCC[C@@H](c5ncccc5Cl)N4)cn23)CC1 (single isomer, unassigned) [Compound I-188] | 4.46

same assay, conditions: male, SD, plasma; Rat, 3 mg/kg IV; 10 mg/kg PO; read-out: F % (oral bioavailability)

Row | Structure (SMILES) | bioavailability [%]
7 | CN1CCN(c2cccc3nc([C@H]4CCC[C@@H](c5ncccc5Cl)N4)cn23)CC1 (racemic) [Compound I-149] | 37.9
8 | CN1CCN(c2cccc3nc([C@H]4CCC[C@@H](c5ncccc5Cl)N4)cn23)CC1 (single isomer, unassigned) [Compound I-188] | 36.9

same assay, conditions: male, SD, plasma; Rat, 3 mg/kg IV; 10 mg/kg PO; read-out: t½ (converted)

Row | Structure (SMILES) | half-life [h]
9 | CN1CCN(c2cccc3nc([C@H]4CCC[C@@H](c5ncccc5Cl)N4)cn23)CC1 (racemic) [Compound I-149] | 6.7
10 | CN1CCN(c2cccc3nc([C@H]4CCC[C@@H](c5ncccc5Cl)N4)cn23)CC1 (single isomer, unassigned) [Compound I-188] | 6.87

same assay, conditions: male, SD; Rat brain, 3 mg/kg IV; 10 mg/kg PO; read-out: AUClast (b)

Row | Structure (SMILES) | AUC(0-t) [µg·h/mL]
11 | CN1CCN(c2cccc3nc([C@H]4CCC[C@@H](c5ncccc5Cl)N4)cn23)CC1 (racemic) [Compound I-149] | 3.82
12 | CN1CCN(c2cccc3nc([C@H]4CCC[C@@H](c5ncccc5Cl)N4)cn23)CC1 (single isomer, unassigned) [Compound I-188] | 4.47

same assay, conditions: male, SD; Rat plasma, 3 mg/kg IV; 10 mg/kg PO; read-out: AUClast (p)

Row | Structure (SMILES) | AUC(0-t) [µg·h/mL]
13 | CN1CCN(c2cccc3nc([C@H]4CCC[C@@H](c5ncccc5Cl)N4)cn23)CC1 (racemic) [Compound I-149] | 0.457
14 | CN1CCN(c2cccc3nc([C@H]4CCC[C@@H](c5ncccc5Cl)N4)cn23)CC1 (single isomer, unassigned) [Compound I-188] | 0.791

tested on: brain proteins; test: Fraction of drug unbound to brain proteins, mouse; format: in vitro ADME; conditions: Mouse brain proteins (Table 13)

Row | Structure (SMILES) | Fu (b) [%]
15 | CN1CCN(c2cccc3nc([C@H]4CCC[C@@H](c5ncccc5Cl)N4)cn23)CC1 (single isomer, unassigned) [Compound I-188] | 5.4

tested on: not listed separately; test: Fraction of drug unbound to plasma proteins, rat; format: in vitro ADME; conditions: read-out: Fu (p)

Row | Structure (SMILES) | fraction unbound
16 | CN1CCN(c2cccc3nc([C@H]4CCC[C@@H](c5ncccc5Cl)N4)cn23)CC1 (racemic) [Compound I-149] | 0.2
17 | CN1CCN(c2cccc3nc([C@H]4CCC[C@@H](c5ncccc5Cl)N4)cn23)CC1 (single isomer, unassigned) [Compound I-188] | 0.308

tested on: not listed separately; test: Mouse brain uptake assay (pharmacokinetics and brain penetration after IV administration), 0-1 h, 3 time points; format: in vivo, Male CD1 Mice; conditions: male, CD1, brain and plasma; Mouse, 3 mg/kg IV, 0-1 h; read-out: Kp, uu (unbound brain/unbound plasma drug concentration ratio)
Procedure: as §1
The study design (9 animals) consisted of administrating the drug (IV: 3 mg/kg (5 mL/kg) via tail vein injection) and collecting samples at terminal bleeding for plasma and brain at 0.083, 0.5 and 1 h. The blood collection was performed as follows: the animal was restrained manually and approximately 150 μL blood/time point was collected into a dipotassium EDTA tube via retro orbital puncture under anesthesia with isoflurane. The blood sample was put on ice and centrifuged to obtain a plasma sample (2000 g, 5 min under 4° C.) within 15 minutes. The brain collection was performed as follows: a mid-line incision was made in the animal's scalp and the skin was retracted. Using small bone cutters and rongeurs, the skull overlying the brain was removed. The brain was removed using a spatula and the brain rinsed with cold saline. The brain was placed in screw-top tubes, and the tubes were stored at −70° C. until analysis. The IV dosing solution was prepared in 50 mM citrate buffer (pH 4.0) at 0.6 mg/mL.
Plasma Sample Preparation:
An aliquot of 30 μL sample was added to 150 μL MeCN containing 50 ng/mL IS (Dexamethasone). The mixture was vortexed for 5 min and centrifuged at 14,000 rpm for 5 min. An aliquot of 5 μL supernatant was injected for LC-MS/MS analysis.
Brain Sample Preparation:
An aliquot of 30 μL brain homogenate (brain:PBS=1:3, w/v) sample was added to 150 μL IS in ACN (Dexamethasone, 50 ng/mL). The mixture was vortexed for 5 min and centrifuged at 14,000 rpm for 5 min. An aliquot of 5 μL supernatant was injected for LC-MS/MS analysis.
The sample analysis was performed on LCMS/MS-003 (API4000, triple quadruple) under the following conditions: positive ion, ESI, MRM detection using dexamethasone as internal standard. HPLC conditions: mobile phase A: H2O (0.025% formic acid (FA) with 1 mM NH4OAc); mobile phase B: MeOH (0.025% FA with 1 mM NH4OAc) on Waters X-Bridge C18 (2.1×50 mm, 2.5 μm) column at 60° C.

Row | Structure (SMILES) | Kp uu
18 | CN1CCN(c2cccc3nc([C@H]4CCC[C@@H](c5ncccc5Cl)N4)cn23)CC1 (racemic) [Compound I-149] | 0.38

same assay, conditions: male, CD1, mouse, brain and plasma, iv, 3 mg/kg; read-out: Kp (brain/plasma drug concentration ratio)

Row | Structure (SMILES) | Kp
19 | CN1CCN(c2cccc3nc([C@H]4CCC[C@@H](c5ncccc5Cl)N4)cn23)CC1 (racemic) [Compound I-149] | 1.45

same assay, conditions: male, CD1, plasma; Mouse, 3 mg/kg IV, 0-1 h, 3 time points

Row | Structure (SMILES) | clearance [L/h/kg]
20 | CN1CCN(c2cccc3nc([C@H]4CCC[C@@H](c5ncccc5Cl)N4)cn23)CC1 (racemic) [Compound I-149] | 12.4

same assay, conditions: male, CD1, plasma; Mouse, 3 mg/kg IV, 0-1 h, 3 time points; read-out: t½ (converted)

Row | Structure (SMILES) | half-life [h]
21 | CN1CCN(c2cccc3nc([C@H]4CCC[C@@H](c5ncccc5Cl)N4)cn23)CC1 (racemic) [Compound I-149] | 0.367

same assay, conditions: male, CD1; Mouse brain, 3 mg/kg IV, time zero to 1 hr; read-out: AUClast (b)

Row | Structure (SMILES) | AUC(0-t) [µg·h/mL]
22 | CN1CCN(c2cccc3nc([C@H]4CCC[C@@H](c5ncccc5Cl)N4)cn23)CC1 (racemic) [Compound I-149] | 0.295

same assay, conditions: male, CD1; Mouse plasma, 3 mg/kg IV, time zero to 1 hr; read-out: AUClast (p)

Row | Structure (SMILES) | AUC(0-t) [µg·h/mL]
23 | CN1CCN(c2cccc3nc([C@H]4CCC[C@@H](c5ncccc5Cl)N4)cn23)CC1 (racemic) [Compound I-149] | 0.203

tested on: not listed separately; test: Fraction of drug unbound to brain proteins, rat; format: in vitro ADME; conditions: read-out: Fu (b)

Row | Structure (SMILES) | fraction unbound
24 | CN1CCN(c2cccc3nc([C@H]4CCC[C@@H](c5ncccc5Cl)N4)cn23)CC1 (racemic) [Compound I-149] | 0.038
25 | CN1CCN(c2cccc3nc([C@H]4CCC[C@@H](c5ncccc5Cl)N4)cn23)CC1 (single isomer, unassigned) [Compound I-188] | 0.057
